In patent US20260055107A1, “SERIES OF NITROGEN-CONTAINING BRIDGED HETEROCYCLIC COMPOUNDS AND PREPARATION METHOD THEREFOR” (CMS RESEARCH & DEVELOPMENT PTE. LTD., priority 2022, published 2026):

Key:
[1] = molecular target: human complement Factor B protein (Homo sapiens (Human), UniProt P00751); assay: Complement human Factor B protein binding test (SPR method); conditions: Biacore 8K, 1:1 Binding Kinetics Model
Experimental: Experimental purpose: To detect the kinetic constants and affinity of the binding between the test compounds and human complement Factor B using the SPR method.
1-Ethyl-3-(3-dimethylaminopropyl) carbodiimide hydrochloride (EDC) and N-hydroxysulfosuccinimide sodium salt (NHS) were mixed in a 1:1 ratio, and complement Factor B was diluted to 20 μg/mL in acetic acid solution with a pH of 5.5. Using a biomacromolecule interaction analyzer Biacore 8K, the programmed settings were set to add the EDC/NHS, the FB protein solution and the 1 M ethanolamine-hydrochloric acid solution to the detection plate. The detection plate was placed in the machine detection chamber, and the EDC/NHS mixture, the complement Factor B protein solution and the 1 M ethanolamine-hydrochloric acid solution were sequentially injected onto the surface of the CM5 chip according to the procedure for chip activation, ligand coupling and deactivation. The flow cell 1 of each channel was used as a reference channel for surface activation and deactivation only, without injection of complement Factor B protein solution. All sample stock solutions were diluted with running buffer (PBST), and all samples were serially diluted 2 times in duplicate for 6 points. The prepared sample was transferred to the detection plate according to the program settings and the detection plate was placed in the sample chamber of Biacore 8K. The detection program was run, and the samples were injected into each channel of the chip sequentially according to the program, with a binding time of 120 s, a dissociation time of 600 s and a flow rate of 30 μL/min. The data were analyzed using Biacore Insight Evaluation Software: The data were fitted using a 1:1 Binding Kinetics Model to obtain the binding rate constant (kon), dissociation rate constant (koff) and dissociation equilibrium constant (KD) for binding of each test sample to complement Factor B protein.

[2] = In vitro liver microsomal stability test; assay type: in vitro ADME, human; conditions: 1 μM compound, 0.5 mg/mL liver microsomes, NADPH
Experimental: Liver microsomes: purchased from Corning or Xenotech, stored in a −80° C. refrigerator; reduced nicotinamide adenine dinucleotide phosphate (NADPH), supplier: Chem-Impex International, Cat. No.: 00616; control compounds: testosterone, diclofenac, propafenone.
Stock solution: 10 mM DMSO solution; preparation of working concentration: The stock solution was diluted to 100 μM using 100% acetonitrile (organic phase content: 99% acetonitrile, 1% DMSO).
Two 96-well incubation plates were prepared and named as T60 incubation plate and NCF60 incubation plate.
445 μL of microsomal working solution (liver microsomal protein concentration of 0.56 mg/mL) was added to both the T60 incubation plate and the NCF60 incubation plate. The two incubation plates were pre-incubated in a 37° C. water bath for approximately 10 minutes.
After pre-incubation was completed, 5 μL of the test compound or control compound working solution was added to both the T60 incubation plate and the NCF60 incubation plate and mixed well. 50 μL of potassium phosphate buffer per well was added to the NCF60 incubation plate to initiate the reaction. 180 μL of termination solution (acetonitrile solution containing 200 ng/mL tolbutamide and 200 ng/mL labetalol) and 6 μL of NADPH regeneration system working solution were added to a TO termination plate. […]

Caco-2 cells = assay: In vitro Caco-2 cell permeability test; assay type: in vitro ADME; conditions: Caco-2, 2 μM, 120 minutes; for Apparent permeability coefficient: pH 7.40, direction not given; for Efflux ratio: Papp(BA)/Papp(AB)
Experimental: Cell culture was performed using MEM (minimum essential medium) supplemented with 2 mM L-glutamine, 10% fetal bovine serum (FBS), 100 U/mL penicillin-G and 100 μg/mL streptomycin. Cell culture conditions were 37±1° C., 5% CO2 and saturated humidity. When the cells reached a density of 80 to 90%, trypsin (0.05%, w/v)/EDTA (0.02%, w/v) digestion solution was added to digest the cells before seeding the plate. Cells were seeded in BD Falcon Transwell-96 well plates at a seeding density of 1×10^5 cells/cm^2. The cells were incubated in a carbon dioxide incubator for 22 days and then used for transport experiments.
Hank's balanced salt buffer (pH 7.40±0.05) containing 10 mM HEPES was used as the transport buffer in this project. The bidirectional transport of the test compound and the positive drug digoxin was tested at a concentration of 2 μM, with two parallel samples each, and the transport of fenoterol and propranolol from the apical to the basal end (A-B) was tested. The concentration of DMSO in the incubation system was controlled to 1% or less. After loading the sample, the cell plate was incubated at 37±1° C., 5% CO2 and saturated humidity for 120 minutes. All samples were vortexed and centrifuged at 3220 rpm and 20° C. for 20 minutes. The control sample and test sample were diluted in a 1:1 (v/v) ratio with ultrapure water and stored at 4° C., and the analytical tests were performed by liquid chromatography tandem mass spectrometry (LC/MS/MS).
In this study, the liquid chromatography tandem mass spectrometry (LC/MS/MS) method was used to semi-quantitatively analyze the peak area ratios of the test compounds and control samples fenoterol, propranolol and digoxin to the internal standard in the starting solution, receiving solution and administration well supernatant. The apparent permeability coefficient (Papp, cm/s), efflux rate and recovery rate were calculated using the following formula: • (1) Papp=(dCr/dt)×Vr/(A×C0), dCr/dt is the cumulative concentration of the compound at the receiving end per unit time (μM/s); Vr is the volume of the solution at the receiving end (0.075 mL and 0.250 mL for the solution at the apical and basal ends, respectively); A is the relative surface area of the cell monolayer (0.0804 cm^2); C0 is the starting concentration (nM) of the test sample at the administration end or the peak area ratio of the control sample. • (2) Efflux ratio=Papp(BA)/Papp(AB) • (3) Recovery rate (%)=100×[(Vr×Cr)+(Vd×Cd)]/(Vd×C0), C0 is the starting concentration (nM) of the test sample at the administration end or the peak area ratio of the control sample; Vd is the volume at the administration end (0.075 mL on the apical side and 0.250 mL on the basal side); Cd and Cr are the final concentration (nM) of the test sample or the peak area ratio of the control sample at the administration and receiving ends, respectively.

[3] = Plasma protein binding rate test (equilibrium dialysis), human; assay type: in vitro ADME; conditions: 2 μM, equilibrium dialysis 37° C. 4 hours
Experimental: (§1) Experimental purpose: To evaluate the protein binding rate of the compounds of the present disclosure in the plasma of CD-1 mice, SD rats, beagle dogs, cynomolgus monkeys and humans using equilibrium dialysis.
(§2) The test compounds were diluted with dialysis buffer into the plasma of the above five species to prepare samples with a final concentration of 2 μM. The samples were then added to a 96-well equilibrium dialysis device and dialyzed using phosphate buffered saline solution at 37° C. for 4 hours. Warfarin was used as a control compound in the experiment. The concentration of the test compounds and warfarin in the plasma and buffer was determined using LC-MS/MS. The free fraction of the compound was calculated by the following formula: PPB_Unbound (%)=100*FC/TC, where FC is the concentration of the compound at the buffer end of the dialysis plate; TC is the concentration of the compound at the plasma end of the dialysis plate; To is the concentration of the compound in the plasma sample at time zero.

[4] = Plasma protein binding rate test (equilibrium dialysis), rat; assay type: in vitro ADME, SD rats; conditions: 2 μM, equilibrium dialysis 37° C. 4 hours, SD rat plasma
Experimental: as §1, §2

[5] = Plasma protein binding rate test (equilibrium dialysis), cynomolgus monkey; assay type: in vitro ADME, cynomolgus monkeys; conditions: 2 μM, equilibrium dialysis 37° C. 4 hours
Experimental: as §1, §2

[6] = Plasma protein binding rate test (equilibrium dialysis), dog; assay type: in vitro ADME, beagle dogs; conditions: 2 μM, equilibrium dialysis 37° C. 4 hours, beagle dog plasma
Experimental: as §1, §2

[7] = Plasma protein binding rate test (equilibrium dialysis), mouse; assay type: in vitro ADME, CD-1 mice; conditions: 2 μM, equilibrium dialysis 37° C. 4 hours, CD-1 mouse plasma
Experimental: as §1, §2

[8] = Pharmacokinetic study in rats; assay type: in vivo, Male SD rats; conditions: rat; for F: PO 10 mpk vs IV 1 mpk
Experimental: Male SD rats (6 to 8 weeks old, weighing 200 to 300 g) were selected.
Injection administration (IV) was carried out at a dose of 1 mpk and a concentration of 0.20 mg/mL with a vehicle of 20% PEG400/10% solutol/70% water. Oral administration (PO) was carried out at a dose of 10 mpk and a concentration of 1 mg/mL with a vehicle of 20% PEG400/10% solutol/70% water.
Sample collection: 0.03 mL of blood samples were collected by puncture of the saphenous vein in experimental animals at each time point, and the actual blood collection time was recorded.
All blood samples were added to commercial 1.5 mL EDTA-K2 anticoagulant tubes. After blood sample collection, DDV was added into the plasma matrix as a stabilizer, wherein the ratio of plasma to Dichlorvos (DDV) solution was 40:1. The DDV solution was a 40 mM DDV solution in acetonitrile/water (1:1). Within half an hour, the mixture was centrifuged at 4° C. and 3000 g for 10 minutes. The supernatant plasma was aspirated, quickly placed in dry ice and stored in a −80° C. refrigerator for LC-MS/MS analysis.
A non-compartmental model in Phoenix WinNonlin 6.3 pharmacokinetic software was used to process the plasma concentration data. The pharmacokinetic parameters were calculated using the linear-log trapezoidal method. C0: concentration needed immediately after intravenous injection; Cmax: the highest plasma drug concentration after administration; Tmax: time needed to reach drug peak concentration after administration; T1/2: time needed for plasma drug concentration to decrease by half; Vdss: apparent volume of distribution, refers to the proportional constant between the amount of drug in the body and the plasma drug concentration when the drug reaches dynamic equilibrium in the body. Cl: clearance rate, refers to the apparent volume of distribution of the drug cleared from the body per unit time; AUC0-last: area under the drug time curve, refers to the area surrounded by the plasma drug concentration curve against the time axis; F: bioavailability.

Chain of human complement Factor B protein (P00751 26-764): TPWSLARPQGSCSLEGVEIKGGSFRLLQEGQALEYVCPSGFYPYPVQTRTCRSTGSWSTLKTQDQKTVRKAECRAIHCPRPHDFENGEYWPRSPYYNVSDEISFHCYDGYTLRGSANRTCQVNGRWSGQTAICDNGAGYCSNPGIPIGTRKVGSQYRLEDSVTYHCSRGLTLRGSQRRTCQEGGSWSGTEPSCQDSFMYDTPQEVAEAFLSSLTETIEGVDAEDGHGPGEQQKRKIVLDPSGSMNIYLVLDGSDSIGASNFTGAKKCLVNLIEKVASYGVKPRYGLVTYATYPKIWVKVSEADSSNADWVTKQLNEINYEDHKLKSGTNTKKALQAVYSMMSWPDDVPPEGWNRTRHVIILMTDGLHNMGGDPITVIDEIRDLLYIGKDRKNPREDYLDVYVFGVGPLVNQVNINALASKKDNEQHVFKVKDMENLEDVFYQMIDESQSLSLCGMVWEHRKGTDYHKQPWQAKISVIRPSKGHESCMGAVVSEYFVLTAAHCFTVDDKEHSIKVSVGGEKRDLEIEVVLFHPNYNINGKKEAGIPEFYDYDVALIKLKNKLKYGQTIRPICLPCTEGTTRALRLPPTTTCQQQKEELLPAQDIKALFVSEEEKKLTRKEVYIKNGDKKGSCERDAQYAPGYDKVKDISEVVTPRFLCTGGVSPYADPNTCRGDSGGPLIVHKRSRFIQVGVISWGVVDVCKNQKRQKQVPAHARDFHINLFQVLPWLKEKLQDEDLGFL

| Kd [1] [nM] | Human liver microsomal stability CLint [2] [mL/min/kg] | Apparent permeability coefficient (Caco-2 cells) | Efflux ratio (Caco-2 cells) | Plasma protein binding (PPB) unbound, Human (H) [3] [%] | Plasma protein binding (PPB) unbound, Rat (R) [4] [%] | Plasma protein binding (PPB) unbound, Cynomolgus monkey (C) [5] [%] | Plasma protein binding (PPB) unbound, Dog (D) [6] [%] | Plasma protein binding (PPB) unbound, Mouse (M) [7] [%] | AUC0-last ([8]; IV 1 mpk) [µM·h] | C0 ([8]; IV 1 mpk) [µM] | Cl ([8]; IV 1 mpk) [mL/min/kg] | T1/2 ([8]; IV 1 mpk) [h] | Vdss ([8]; IV 1 mpk) [L/kg] | AUC0-last ([8]; PO 10 mpk) [µM·h] | Cmax ([8]; PO 10 mpk) [µM] | T1/2 ([8]; PO 10 mpk) [h] | Tmax ([8]; PO 10 mpk) [h] | F [8] [%] | Structure (SMILES) |
| --- | --- | --- | --- | --- | --- | --- | --- | --- | --- | --- | --- | --- | --- | --- | --- | --- | --- | --- | --- |
| < 100 | <15 | 1.19 10^−6 cm/s | 26.1 | 13.3 | 11.6 | 17.4 | 16.2 | 12.5 | – | – | – | – | – | – | – | – | – | – | CCSC1CC2CCC(c3ccc(C(=O)O)cc3)(C1)N2Cc1c(OC)cc(C)c2[nH]ccc12.O=CO (single isomer, unassigned) [Compound 1B] |
| < 100 | – | 1.56 10^−6 cm/s | 15.8 | 21.7 | 15.1 | 25.6 | 31.7 | 22.2 | 5.645 | 5.81 | 6.5 | 1.16 | 0.55 | 28.425 | 9.03 | 11.7 | 0.50 | 50.4 | COc1cc(C)c2[nH]ccc2c1CN1C2CCC1(c1ccc(C(=O)O)cc1)CC(SC)C2.O=CO (single isomer, unassigned) [Compound 2B] |
| < 100 | <15 | 1.21 10^−6 cm/s | 22.6 | 15.2 | 14.1 | 28.5 | 25.6 | 19.1 | 10.573 | 6.2 | 3.5 | 2.06 | 0.53 | 33.029 | 7.83 | 9.90 | 0.50 | 31.2 | COc1cc(C)c2[nH]ccc2c1CN1C2CCC1(c1ccc(C(=O)O)cc1)CC(C1CC1)C2 (single isomer, unassigned) [Compound 3B] |
| < 100 | – | – | – | – | – | – | – | – | – | – | – | – | – | – | – | – | – | – | CCS[C@H]1C[C@H]2CC[C@@](c3ccc(C(=O)O)cc3)(C1)N2Cc1c(OC)cc(C)c2[nH]ccc12 [Compound 1A] |
| < 100 | – | – | – | – | – | – | – | – | – | – | – | – | – | – | – | – | – | – | COc1cc(C)c2[nH]ccc2c1CN1[C@@H]2CC[C@@]1(c1ccc(C(=O)O)cc1)C[C@@H](SC)C2 [Compound 2A] |
| < 100 | – | – | – | – | – | – | – | – | – | – | – | – | – | – | – | – | – | – | COc1cc(C)c2[nH]ccc2c1CN1[C@@H]2CC[C@@]1(c1ccc(C(=O)O)cc1)C[C@H](C1CC1)C2 [Compound 3A] |
